Marks after values point to notes of the source that are not given here. Where no end group is shown, it is not given here.
Tests used:
[1] = test system: Thyroid cancer tumor cells; assay: MTT proliferation inhibition, thyroid cancer cells; type: cell-based, human; parameters: concentration or dose not given beside the values; details: 48 h
In short: (§1)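 Tumour cells plated at 2×10^4 cells/mL, attached overnight, then exposed to dilutions of mPEG-HM-1 for 48 h at 37 °C, 5% CO2. MTT added 4 h, formazan dissolved in DMSO, absorbance 570/630 nm; growth inhibition = 1 − treated/untreated, three independent repeats, mean±SD.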

[2] = test system: Esophageal cancer tumor cells; assay: MTT proliferation inhibition, esophageal cancer cells; type: cell-based, human; parameters: concentration or dose not given beside the values; details: 48 h
In short: as §1

[3] = test system: Gastric cancer tumor cells; assay: MTT proliferation inhibition, gastric cancer cells; type: cell-based, human; parameters: concentration or dose not given beside the values; details: 48 h
In short: as §1

[4] = test system: Kidney cancer tumor cells; assay: MTT proliferation inhibition, kidney cancer cells; type: cell-based, human; parameters: concentration or dose not given beside the values; details: 48 h
In short: as §1

[5] = test system: Bladder Cancer tumor cells; assay: MTT proliferation inhibition, bladder cancer cells; type: cell-based, human; parameters: concentration or dose not given beside the values; details: 48 h
In short: as §1

[6] = test system: IL-1β production by mouse peritoneal macrophages; assay: IL-1β production by mouse peritoneal macrophages (ELISA); type: cell-based; details: 48 h
In short: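 Starch-elicited mouse peritoneal macrophages (2×10^6 cells/mL), adhered 3 h, treated with low, medium and high concentrations of mPEG-HM-1 for 48 h; dexamethasone as positive control. Supernatant IL-1β quantified by sandwich ELISA at OD450.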

[7] = test system: xylene-induced ear swelling in Kunming mice; assay: Xylene-induced ear swelling in mice; type: in vivo, mouse; details: for Inhibition rate: ear swelling vs control
In short: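 Kunming mice were dosed once daily for 5 days (aspirin 200 mg/kg as positive control, saline as blank). One hour after the last dose, xylene was applied to the right ear, with the left ear as untreated reference. Ear punches were weighed 2 h later; swelling degree = right − left weight, rate = degree/left weight ×100%.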

[8] = test system: collagen induced arthritis (CIA) in DBA/1 mice; assay: Collagen-induced mouse arthritis (CIA) model; type: in vivo; details: for Joint swelling / Left and right paw swelling / Clinical score: CIA DBA/1 mice; for Clinical score: maximum score 16
[9] = test system: carrageenan-induced toe swelling in SD rats; assay: Carrageenan-induced acute toe swelling in rats; type: in vivo, rat; parameters: Swelling: unit not given here
Experimental: SD rats were divided into blank model group, dexamethasone-positive group (5 mg/kg) and mPEG-HM-1 test group. The drug was administered once a day, and the model group was given the same volume of normal saline for 3 days and fed normally. At the first hour after the last administration, 0.1 mL of 1% carrageenan was injected subcutaneously into the right hind paw of the rats to induce inflammation. The volume of the foot was measured at 1 h, 3 h, 5 h, and 7 h after inflammation. The degree of swelling of the foot was calculated according to the following formula: the degree of swelling of the foot (mL)=the volume of the foot after inflammation−the volume before inflammation. Record the number of milliliters of spilled liquid (method: use the ballpoint pen to circle as the measurement mark at the protruding point of the right joint, and then put the right hind foot of each mouse into the volume measuring device, so that the hind limb is exposed outside the cylinder, and the depth of the immersion was determined by coinciding the circle with the liquid surface. After the foot enters the liquid, the liquid level rises, and the volume of the overflow liquid is the volume of the right hind foot of the rat, and the normal volume of the right hind foot of each mouse is sequentially determined).

[10] = 10 mg/kg once daily for 5 days, 2 h after xylene
[11] = 20 mg/kg once daily for 5 days, 2 h after xylene
[12] = 10 mg/kg subcutaneous from day 30 of modeling
[13] = 20 mg/kg once a day for 3 days, 1 h after carrageenan
[14] = 20 mg/kg once a day for 3 days, 3 h after carrageenan
[15] = 20 mg/kg once a day for 3 days, 5 h after carrageenan
[16] = 20 mg/kg once a day for 3 days, 7 h after carrageenan
[17] = 40 mg/kg once daily for 5 days, 2 h after xylene
[18] = 20 mg/kg subcutaneous from day 30 of modeling
[19] = 40 mg/kg once a day for 3 days, 1 h after carrageenan
[20] = 40 mg/kg once a day for 3 days, 3 h after carrageenan
[21] = 40 mg/kg once a day for 3 days, 5 h after carrageenan
[22] = 40 mg/kg once a day for 3 days, 7 h after carrageenan
[23] = 40 mg/kg subcutaneous from day 30 of modeling

Row | Substance | rate of growth inhibition [1] [%] | rate of growth inhibition [2] [%] | rate of growth inhibition [3] [%] | rate of growth inhibition [4] [%] | rate of growth inhibition [5] [%] | IL-1β ([6]; 10 μg/mL) [pg/mL] | Inhibition Rate of IL-1β production ([6]; 10 μg/mL) [%] | IL-1β ([6]; 20 μg/mL) [pg/mL] | Inhibition Rate of IL-1β production ([6]; 20 μg/mL) [%] | Swelling [7, 10] | Inhibition rate ([7]; 10 mg/kg once daily for 5 days) [%] | Swelling [7, 11] | Inhibition rate ([7]; 20 mg/kg once daily for 5 days) [%] | Swelling [9, 13] | Swelling [9, 14] | Swelling [9, 15] | Swelling [9, 16] | IL-1β ([6]; 40 μg/mL) [pg/mL] | Swelling [7, 17] | Inhibition rate ([7]; 40 mg/kg once daily for 5 days) [%] | also measured
1 | mPEG-ALD5k-Arg-Gly-Ala-Asp-Arg-Ala-Gly-Gly-Gly-Gly-Arg-Gly-Asp ({mPEG‑ALD 5 kDa}-RGADRAGGGGRGD) [mPEG-ALD5k-HM-1] | 40.23 ± 10.05 | 44.63 ± 10.86 | 58.77 ± 15.49 | 55.43 ± 14.04 | 35.93 ± 10.29 | 654.50 ± 18.43 | 28.62 | 516.13 ± 10.95 | 43.71 | 4.80 ± 0.35* mg | 21.52 | 4.16 ± 0.14** mg | 32.10 | 0.21 ± 0.11 | 0.34 ± 0.19 | 0.37 ± 0.11 | 0.35 ± 0.13 | – | – | – | IL-1β ([6]; 5 μg/mL): 734.73 ± 16.59 pg/mL; Inhibition Rate of IL-1β production ([6]; 5 μg/mL): 19.87%; Inhibition rate ([7]; 5 mg/kg once daily for 5 days): 10.17%; Swelling ([7]; 5 mg/kg once daily for 5 days, right minus left ear piece weight 2 h after xylene): 5.50 ± 0.21 mg; Joint swelling [8, 12]: 0.74 ± 0.14 mm; Left and right paw swelling [8, 12]: 0.72 ± 0.15 mm; Clinical score [8, 12]: 8.93 ± 1.27; Swelling ([9]; 10 mg/kg once a day for 3 days, 1 h after carrageenan): 0.22 ± 0.10; Swelling ([9]; 10 mg/kg once a day for 3 days, 3 h after carrageenan): 0.35 ± 0.13; Swelling ([9]; 10 mg/kg once a day for 3 days, 5 h after carrageenan): 0.41 ± 0.15; Swelling ([9]; 10 mg/kg once a day for 3 days, 7 h after carrageenan): 0.31 ± 0.12
2 | mPEG-ALD10k-Arg-Gly-Ala-Asp-Arg-Ala-Gly-Gly-Gly-Gly-Arg-Gly-Asp ({mPEG‑ALD 10 kDa}-RGADRAGGGGRGD) [mPEG-ALD10k-HM-1] | 55.30 ± 13.10 | 65.18 ± 15.16 | 80.01 ± 18.26 | 75.23 ± 19.11 | 52.68 ± 13.12 | 724.09 ± 16.59 | 21.03 | 620.94 ± 18.43 | 32.28 | 5.36 ± 0.12 mg | 12.36 | 4.67 ± 0.79* mg | 23.67 | 0.24 ± 0.12 | 0.36 ± 0.13 | 0.42 ± 0.15 | 0.32 ± 0.10 | 455.16 ± 10.95 | 3.58 ± 0.33** mg | 41.58 | Joint swelling [8, 18]: 0.73 ± 0.15 mm; Left and right paw swelling [8, 18]: 0.70 ± 0.14 mm; Clinical score [8, 18]: 8.65 ± 1.33; limbs score (in words) ([8]; CIA mice, subcutaneous, once every three days, vs model control group): significantly lower than that of the model control group; Swelling [9, 19]: 0.21 ± 0.10; Swelling [9, 20]: 0.31 ± 0.20; Swelling [9, 21]: 0.36 ± 0.13; Swelling [9, 22]: 0.33 ± 0.12; inhibition of carrageenan-induced toe swelling (in words) ([9]; rats, 40 mg/kg, once a day for 3 days): most effective
3 | mPEG-ALD20k-Arg-Gly-Ala-Asp-Arg-Ala-Gly-Gly-Gly-Gly-Arg-Gly-Asp ({mPEG‑ALD 20 kDa}-RGADRAGGGGRGD) [mPEG-ALD20k-HM-1] | 50.35 ± 15.23 | 60.18 ± 15.32 | 75.23 ± 20.62 | 70.23 ± 20.58 | 45.29 ± 11.63 | – | – | 729.13 ± 13.12 | 20.48 | – | – | 4.89 ± 0.20 mg | 20.10 | – | – | – | – | 628.18 ± 15.34 | 4.52 ± 0.32* mg | 26.19 | Inhibition Rate of IL-1β production ([6]; 40 μg/mL): 31.49%; IL-1β ([6]; 80 μg/mL): 438.93 ± 12.56 pg/mL; Inhibition Rate of IL-1β production ([6]; 80 μg/mL): 52.13%; Swelling ([7]; 80 mg/kg once daily for 5 days, 2 h after xylene): 3.70 ± 0.20** mg; Inhibition rate ([7]; 80 mg/kg once daily for 5 days): 39.47%; inhibition rate of ear swelling ([7]; 80 mg/kg, once daily for 5 days, mice): 37.76%; Joint swelling [8, 23]: 0.72 ± 0.16 mm; Left and right paw swelling [8, 23]: 0.74 ± 0.13 mm; Clinical score [8, 23]: 8.66 ± 1.38; Swelling [9, 19]: 0.27 ± 0.13; Swelling [9, 20]: 0.34 ± 0.16; Swelling [9, 21]: 0.41 ± 0.14; Swelling [9, 22]: 0.35 ± 0.13; Swelling ([9]; 80 mg/kg once a day for 3 days, 1 h after carrageenan): 0.25 ± 0.09; Swelling ([9]; 80 mg/kg once a day for 3 days, 3 h after carrageenan): 0.32 ± 0.11; Swelling ([9]; 80 mg/kg once a day for 3 days, 5 h after carrageenan): 0.40 ± 0.15; Swelling ([9]; 80 mg/kg once a day for 3 days, 7 h after carrageenan): 0.32 ± 0.16

From patent US10869931B2, “Polyethylene glycol-modified angiogenesis inhibitor HM-1 and application thereof” (NANJING ANJI BIOLOGICAL TECHNOLOGY CO.,LTD, priority 2016, dated 2020)
